In patent US6046218A, “Pyridine derivative and medicament containing the same as an effective ingredient” (SS Pharmaceutical Co., Ltd., priority 1996, dated 2000):
Where a name gives a salt, the structure may show the parent alone.

Legend:
IL-4 production = experiment: Test 1: inhibition of IL-4 production in human T-cell strain ATL-16T(-) stimulated with PMA (R&D Systems EIA); type: cell-based; details: ATL-16T(-) 1×10^6 cells/0.5 ml/well, 20 nM PMA, 48 hours, read-out: Inhibition rate of IL-4 production; for inhibition at 10 µM: 10^-5 M; for inhibition at 1 µM: 10^-6 M; for inhibition at 0.1 µM: 10^-7 M; for inhibition at 0.01 µM: 10^-8 M
Method: Test 1: Test on the inhibition of IL-4 production
Into individual wells of a 48-well microplate, the human T-cell strain ATL-16T(-) was poured at a concentration of 1×10^6 cells/0.5 ml/well (n=3), followed by the addition of a stimulator (20 nM of PMA) and a medicament at the same time. The resulting mixture was incubated in 5% CO2 at 37° C. for 48 hours. After incubation, 100 μl of the supernatant were collected and subjected to measurement by a human IL-4 EIA kit (R&D SYSTEMS, INC.). The inhibition rate was calculated according to the following formula. [formula]

IL-5 production = experiment: Test 3: inhibition of IL-5 production in human PBMC stimulated with ConA; type: cell-based; details: 10^-6 M, 10 μg/ml ConA, 48 hours, read-out: Inhibition rate of IL-5 production
Method: Test 3: Test on the inhibition of IL-5 production
The peripheral blood was collected from a normal volunteer and peripheral blood mononuclear cells (PBMC) of the human peripheral blood were separated therefrom by the specific gravity centrifugation method. They were suspended in an AIM-V medium and their cell count was adjusted. To individual wells of a 96-well incubation plate, 1×10^6 cells/ml of PBMC were poured, followed by the addition of a stimulator (10 μg/ml of ConA) and a medicament. The resulting mixture was incubated in 5% CO2 at 37° C. for 48 hours. After incubation, 50 μl of the supernatant were collected and subjected to measurement by a human IL-5 EIA kit (BIO SOURCE, INC.). The inhibition rate was calculated according to the following formula. [formula]

Compound COCOc1cc(/C=C/C(=O)c2ccccc2)ncc1OC [Ex. 4, 5-Methoxy-4-methoxymethyloxy-2-(3-oxo-3-phenyl-1-propenyl)pyridine] has an inhibition at 10 µM (IL-4 production) of 86.2%, an inhibition at 1 µM (IL-4 production) of 75.2% and an inhibition at 0.1 µM (IL-4 production) of 67.9%. The inhibition at 0.01 µM (IL-4 production) was 57.4% and the inhibition at 1 µM (IL-5 production) was 60.2%.

Compound COC(=O)CCCOc1cc(/C=C/C(=O)c2ccccc2)ncc1OC [Ex. 16, Methyl 4-[5-methoxy-2-(3-oxo-3-phenyl-1-propenyl)-4-pyridyloxy]butanoate] has an inhibition at 10 µM (IL-4 production) of 90.1%, an inhibition at 1 µM (IL-4 production) of 82.1% and an inhibition at 0.1 µM (IL-4 production) of 81.6%. It also gave an inhibition at 0.01 µM (IL-4 production) of 76.8% and an inhibition at 1 µM (IL-5 production) of 79.4%.

For CCCCCC(O)/C=C/c1cc(OCCCCCC(=O)OC)c(OC)cn1 (stereo not shown) [Ex. 30, Methyl 6-[2-(3-hydroxy-1-octenyl)-5-methoxy-4-pyridyloxy]hexanoate], the inhibition at 10 µM (IL-4 production) was 74%, the inhibition at 1 µM (IL-4 production) was 67% and the inhibition at 0.1 µM (IL-4 production) was 56.8%. For the same compound, the inhibition at 0.01 µM (IL-4 production) was 40.7% and the inhibition at 1 µM (IL-5 production) was 73.2%.

COc1cnc(/C=C/C(O)c2ccccc2)cc1O (stereo not shown) [Ex. 24, 4-Hydroxy-2-(3-hydroxy-3-phenyl-1-propenyl)-5-methoxypyridine] was tested, and the inhibition at 10 µM (IL-4 production) was 92.2%, the inhibition at 1 µM (IL-4 production) was 79.5% and the inhibition at 0.1 µM (IL-4 production) was 69.5%. For the same compound, the inhibition at 0.01 µM (IL-4 production) was 56% and the inhibition at 1 µM (IL-5 production) was 80%.

For CCCCCC(=O)/C=C/c1cc(OCCCC(=O)OCC)c(OC)cn1 [Ex. 13, Ethyl 4-[5-methoxy-2-(3-oxo-1-octenyl)-4-pyridyloxy]butanoate], the inhibition at 10 µM (IL-4 production) was 87.9%, the inhibition at 1 µM (IL-4 production) was 77% and the inhibition at 0.1 µM (IL-4 production) was 68.7%. The inhibition at 0.01 µM (IL-4 production) was 62.3% and the inhibition at 1 µM (IL-5 production) was 80.9%.

In the case of CCCCCC(O)/C=C/c1cc(OCCCCCC(=O)O)c(OC)cn1 (stereo not shown) [Ex. 35, 6-[2-(3-Hydroxy-1-octenyl)-5-methoxy-4-pyridyloxy]hexanoic acid], the inhibition at 10 µM (IL-4 production) is reported as 90.3%, the inhibition at 1 µM (IL-4 production) is reported as 89.3% and the inhibition at 0.1 µM (IL-4 production) is reported as 82.5%. The inhibition at 0.01 µM (IL-4 production) was 64.3% and the inhibition at 1 µM (IL-5 production) was 82.2%.

Work on COCOc1cnc(/C=C/C(=O)c2ccccc2)cc1OCOC [Ex. 5, 4,5-Bis(methoxymethyloxy)-2-(3-oxo-3-phenyl-1-propenyl)pyridine] yielded an inhibition at 10 µM (IL-4 production) of 104%, an inhibition at 1 µM (IL-4 production) of 90% and an inhibition at 0.1 µM (IL-4 production) of 74%. The inhibition at 0.01 µM (IL-4 production) was 50.9% and the inhibition at 1 µM (IL-5 production) was 89.3%.

Work on COC(=O)CCCCCOc1cnc(/C=C/C(O)C2CCCC2)cc1OC (stereo not shown) [Ex. 31, Methyl 6-[2-(3-cyclopentyl-3-hydroxy-1-propenyl)-4-methoxy5-pyridyloxy]hexanoate] yielded an inhibition at 10 µM (IL-4 production) of 81.2%, an inhibition at 1 µM (IL-4 production) of 69.5% and an inhibition at 0.1 µM (IL-4 production) of 58%. For the same compound, the inhibition at 0.01 µM (IL-4 production) was 40.4% and the inhibition at 1 µM (IL-5 production) was 71.6%.

For CCOC(=O)CCCCCOc1cc(/C=C/C(=O)c2cc(OC)c(OC)c(OC)c2)ncc1OC [Ex. 101, Ethyl 6-[5-methoxy-2-(3-oxo-3-(3,4,5-trimethoxyphenyl)-1-propenyl)-4-pyridyloxy]hexanoate hydrochloride], the inhibition at 1 µM (IL-5 production) was 95.6%.

Compound COc1cc(/C=C/C(O)C2CCCC2)ncc1OCCCC(=O)O (stereo not shown) [Ex. 37, 4-[2-(3-Cyclopentyl-3-hydroxy-1-propenyl)-4-methoxy-5-pyridyloxy]butanoic acid hydrochloride] has an inhibition at 1 µM (IL-5 production) of 72.6%.

In the case of CCOC(=O)CCCCCOc1cc(/C=C/C(=O)c2ccccn2)ncc1OC [Ex. 69, Ethyl 6-[5-methoxy-2-(3-oxo-3-(2-pyridyl)-1-propenyl]-4-pyridyloxy]hexanoate], the inhibition at 1 µM (IL-5 production) is reported as 73.1%.

In the case of COc1cnc(/C=C/C(=O)c2ccncc2)cc1OC [Ex. 68, 4,5-Dimethoxy-2-[3-oxo-3-(4-pyridyl)-1-propenyl]pyridine], the inhibition at 1 µM (IL-5 production) is reported as 95.4%.

Compound COc1ccc(C(=O)/C=C/c2cc(O)c(OC)cn2)c(OC)c1 [Ex. 59, 4-Hydroxy-5-methoxy-2-[3-(2,4-dimethoxyphenyl)-3-oxo-1-propenyl]pyridine] has an inhibition at 1 µM (IL-5 production) of 78.9%.

For CCOC(=O)COc1cnc(/C=C/C(=O)c2ccccc2)cc1OC [Ex. 81, Ethyl [4-methoxy-6-(3-oxo-3-phenyl-1-propenyl)-3-pyridyloxy]acetate], the inhibition at 1 µM (IL-5 production) was 72.7%.

Work on CCCCCC(=O)/C=C/c1cc(OCCCCCC(=O)OCC)c(OCc2ccccc2)cn1 [Ex. 14, Ethyl 6-[5-benzyloxy-2-(3-oxo-1-octenyl)-4-pyridyloxy]hexanoate] yielded an inhibition at 1 µM (IL-5 production) of 90.2%.

Compound COc1cnc(/C=C/C(=O)C2CCCCC2)cc1O [Ex. 75, 2-(3-Cyclohexyl-3-oxo-1-propenyl)-4-hydroxy-5-methoxypyridine hydrochloride] has an inhibition at 1 µM (IL-5 production) of 90.6%.

CCOC(=O)CCCOc1cc(/C=C/C(=O)C2CCCC2)ncc1OC [Ex. 79, Ethyl 4-[2-(3-cyclopentyl-3-oxo-1-propenyl)-5-methoxy-4-pyridyloxy]butanoate hyd rochloride] gave an inhibition at 1 µM (IL-5 production) of 64.1%.

In the case of COC(=O)CCCCCOc1cc(/C=C/C(=O)c2ccccc2)ncc1OC [Ex. 42, methyl 6-[5-methoxy-2-(3-oxo-3-phenyl-1-propenyl)-4-pyridyloxy]hexanoate], the inhibition at 1 µM (IL-5 production) is reported as 77.5%.

Compound CCCCCC(O)/C=C/c1cc(OCCCC(=O)O)c(O)cn1 (stereo not shown) [Ex. 39, 4-[5-Hydroxy-2-(3-hydroxy-1-octenyl)-4-pyridyloxy]butanoic acid hydrochloride] has an inhibition at 1 µM (IL-5 production) of 97.6%.

Compound COc1cnc(/C=C/C(=O)N2CCCC2)cc1OC [Ex. 108, 4,5-Dimethoxy-2-(3-oxo-3-pyrrolidino-1-propenyl)pyridine hydrochloride] has an inhibition at 1 µM (IL-5 production) of 78.5%.

In the case of CCOC(=O)CCCOc1cc(/C=C/C(=O)c2ccccc2)ncc1OCC [Ex. 84, Ethyl 4-[5-ethoxy-2-(3-oxo-3-phenyl-1-propenyl)-4-pyridyloxy]butanoate hydrochloride], the inhibition at 1 µM (IL-5 production) is reported as 89.4%.

Work on COc1cnc(/C=C/C(=O)c2cccnc2)cc1OC [Ex. 67, 4,5-Dimethoxy-2-[3-oxo-3-(3-pyridyl)-1-propenyl]pyridine] yielded an inhibition at 1 µM (IL-5 production) of 77.9%.

With COc1cnc(/C=C/C(=O)N2CCCCCC2)cc1OC [Ex. 109, 4,5-Dimethoxy-2-[3-(1-azepanyl)-3-oxo-1-propenyl]pyridine hydrochloride] the inhibition at 1 µM (IL-5 production) was 83.8%.

In the case of COc1cnc(/C=C/C(=O)N2CCCCC2)cc1OC1CCCC1 [Ex. 111, 4-Cyclopentyloxy-5-methoxy-2-(3-oxo-3-piperidino-1-propenyl)pyridine hydrochloride], the inhibition at 1 µM (IL-5 production) is reported as 73.2%.

COC(=O)CCCOc1cnc(/C=C/C(O)c2ccccc2)cc1OC (stereo not shown) [Ex. 28, Methyl 4-[2-(3-hydroxy-3-phenyl-1-propenyl)-4-methoxy-5-pyridyloxy]butanoate] gave an inhibition at 1 µM (IL-5 production) of 72.1%.

With CCOC(=O)CCCOc1cnc(/C=C/C(=O)c2ccccc2)cc1OC [Ex. 82, Ethyl 4-[4-methoxy-6-(3-oxo-3-phenyl-1-propenyl)-3-pyridyloxy]butanoate] the inhibition at 1 µM (IL-5 production) was 69.6%.

Compound COc1ccc(C(=O)/C=C/c2cc(OC)c(OC)cn2)cc1 [Ex. 50, 4,5-Dimethoxy-2-[3-(4-methoxyphenyl)-3-oxo-1-propenyl]pyridine] has an inhibition at 1 µM (IL-5 production) of 79.4%.

In the case of COc1cnc(/C=C/C(=O)c2cc(OC)c(OC)c(OC)c2)cc1O [Ex. 61, 4-Hydroxy-5-methoxy-2-[3-oxo-3-(3,4,5-trimethoxyphenyl)-1-propenyl]pyridinehydrochloride], the inhibition at 1 µM (IL-5 production) is reported as 79.4%.

In the case of COC(=O)CCCOc1cnc(/C=C/C(O)C2CCCC2)cc1OC (stereo not shown) [Ex. 32, Methyl 4-[2-(3-cyclopentyl-3-hydroxy-1-propenyl)-4-methoxy-5-pyridyloxy]butanoate], the inhibition at 1 µM (IL-5 production) is reported as 80.7%.

With COC(=O)CCCCCOc1cc(/C=C/C(O)c2ccccc2)ncc1OC (stereo not shown) [Ex. 26, Methyl 6-[2-(3-hydroxy-3-phenyl-1-propenyl)-5-methoxy-4-pyridyloxy]hexanoate] the inhibition at 1 µM (IL-5 production) was 83.7%.

Work on CCCCCC(O)/C=C/c1cc(OCCCC(=O)O)c(OC)cn1 (stereo not shown) [Ex. 40, 4-[2-(3-Hydroxy-1-octenyl)-5-methoxy-4-pyridyloxy]butanoic acid hydrochloride] yielded an inhibition at 1 µM (IL-5 production) of 97.5%.

In the case of COc1cnc(/C=C/C(=O)c2ccccc2)cc1OCCCCCC(=O)O [Ex. 103, 6-[5-Methoxy-2-(3-oxo-3-phenyl-1-propenyl)-4-pyridyloxy]hexanoic acid], the inhibition at 1 µM (IL-5 production) is reported as 72.4%.

Work on CCOc1cnc(/C=C/C(=O)c2ccccc2)cc1OCCCC(=O)O [Ex. 104, 4-[5-Ethoxy-2-(3-oxo-3-phenyl-1-propenyl)-4-pyridyloxy]butanoic acid hydrochloride] yielded an inhibition at 1 µM (IL-5 production) of 89.3%.

Compound COc1cnc(/C=C/C(=O)c2ccsc2)cc1OC [Ex. 64, 4,5-Dimethoxy-2-[3-oxo-3-(3-thienyl)-1-propenyl]pyridine] has an inhibition at 1 µM (IL-5 production) of 82.1%.

CCOC(=O)CCCCCOc1cc(/C=C/C(O)c2ccccc2)ncc1OC (stereo not shown) [Ex. 27, Ethyl 6-[2-(3-hydroxy-3-phenyl-1-propenyl)-5-methoxy-4-pyridyloxy]hexanoate] was tested, and the inhibition at 1 µM (IL-5 production) was 89.6%.
